Measured values from ChEMBL document CHEMBL1201862, “PubChem BioAssay data set” (2004).
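1) Cells in 96-well plates. 2) Compound, 48 h, 5 concentrations. 3) Linear interpolation between surrounding doses. 4) Unreached endpoint = highest concentration. Abbreviation: GI50, concentration required for 50% inhibition of growth.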 Activity calls are given as the source filed them. Rule as the data show it: active = GI50 up to about 1.1 µM and inactive = higher.

Assays:
Assay in all cases: growth of human tumour cells (NCI), 48 h
[1] = tested on: SK-OV-3
[2] = tested on: SF-268
[3] = tested on: OVCAR-5
[4] = tested on: LOX IMVI
[5] = tested on: A498
[6] = tested on: COLO 205
[7] = tested on: OVCAR-8
[8] = tested on: NCI/ADR-RES
[9] = tested on: BT-549
[10] = tested on: HCT-116
[11] = tested on: SR
[12] = tested on: MCF7
[13] = tested on: RXF 393
[14] = tested on: MDA-N
[15] = tested on: SW-620
[16] = tested on: HOP-62
[17] = tested on: NCI-H226
[18] = tested on: NCI-H460
[19] = tested on: NCI-H23
[20] = tested on: U-251
[21] = tested on: RPMI-8226
[22] = tested on: MDA-MB-435
[23] = tested on: SK-MEL-2
[24] = tested on: EKVX
[25] = tested on: UO-31
[26] = tested on: T47D
[27] = tested on: UACC-257
[28] = tested on: UACC-62
[29] = tested on: DU-145
[30] = tested on: HCT-15
[31] = tested on: PC-3
[32] = tested on: Hs-578T
[33] = tested on: TK-10
[34] = tested on: SK-MEL-28
[35] = tested on: IGROV-1
[36] = tested on: OVCAR-4
[37] = tested on: SNB-75
[38] = tested on: SK-MEL-5
[39] = tested on: A549
[40] = tested on: SNB-19
[41] = tested on: HL-60
[42] = tested on: Malme-3M
[43] = tested on: K562
[44] = tested on: SF-295
[45] = tested on: CAKI-1
[46] = tested on: HT-29
[47] = tested on: M14
[48] = tested on: SN12C
[49] = tested on: NCI-H522
[50] = tested on: CCRF-CEM
[51] = tested on: 786-0
[52] = tested on: KM12
[53] = tested on: ACHN
[54] = tested on: OVCAR-3
[55] = tested on: MDA-MB-231
[56] = tested on: HCC 2998

Measured: GI50

CC(C)C(Sc1nc(N)nc2nc[nH]c12)C(=O)O (stereo unspecified)
> 100 µM: [30]
inactive: [1] > 100 µM | [2] > 100 µM | [3] > 100 µM | [4] > 100 µM | [5] > 100 µM | [6] > 100 µM | [7] > 100 µM | [8] > 100 µM | [9] > 100 µM | [10] > 100 µM | [11] > 100 µM | [12] > 100 µM | [13] > 100 µM | [14] > 100 µM | [15] > 100 µM | [16] > 100 µM | [17] > 100 µM | [18] > 100 µM | [19] > 100 µM | [20] > 100 µM | [21] > 100 µM | [22] > 100 µM | [23] > 100 µM | [24] > 100 µM | [25] > 100 µM | [26] > 100 µM | [27] > 100 µM | [28] > 100 µM | [29] > 100 µM | [31] > 100 µM | [32] > 100 µM | [33] > 100 µM | [34] > 100 µM | [35] > 100 µM | [36] > 100 µM | [37] > 100 µM | [38] > 100 µM | [39] > 100 µM | [40] > 100 µM | [41] > 100 µM | [42] > 100 µM | [43] > 100 µM | [44] > 100 µM | [45] > 100 µM | [46] > 100 µM | [47] > 100 µM | [48] > 100 µM | [49] > 100 µM | [50] > 100 µM | [51] > 100 µM | [52] > 100 µM | [53] > 100 µM | [54] > 100 µM | [55] > 100 µM | [56] > 100 µM
